Assay results from US7026281B1, “Antagonistic analogs of GH-RH inhibiting IGF-I and -II” (The Administrators of the Tulane Educational Fund, priority 1998, dated 2006).
Square brackets hold non-standard residues; d marks the D form. Peptide text beside a SMILES is read from it. * marks the point of attachment. Phe(4-Cl) = N[C@@H](Cc1ccc(Cl)cc1)C(=O)O; hArg = N=C(N)NCCCC[C@H](N)C(=O)O; Nle = CCCC[C@H](N)C(=O)O; Abu = CC[C@H](N)C(=O)O; PhAc = O=C(Cc1ccccc1)*

Columns and labels:
[1] = test system: hGH-RH(1–29)NH2 induced GH release; assay: Inhibition of GH release in superfused rat pituitary system; type: cell-based; conditions: for Inhibition of GH release (%) 30 min / Inhibition of GH release (%) 60 min / Inhibition of GH release (%) 90 min / Inhibition of GH release (%) 120 min / Inhibition of GH release (%) 0 min: antagonist 30 nM; for Inhibition of GH release (%) 30 min: 1 nM hGH-RH(1–29)NH2 30 min later; for Inhibition of GH release (%) 60 min: 1 nM hGH-RH(1–29)NH2 60 min later; for Inhibition of GH release (%) 90 min: 1 nM hGH-RH(1–29)NH2 90 min later; for Inhibition of GH release (%) 120 min: 1 nM hGH-RH(1–29)NH2 120 min later; for Inhibition of GH release (%) 0 min: 1 nM hGH-RH(1–29)NH2 at 0 min
In short: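 Superfused rat pituitary cells preincubated 9 min with peptide, then challenged for 3 min with 1 nM hGH-RH(1–29)NH2 at 0, 30, 60, 90 and 120 min. Rat GH measured by double-antibody RIA; net integral GH responses expressed as percent of the original 1 nM GH-RH-induced response.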

[2] = target: T1, rat pituitary GH-RH receptors (Rattus norvegicus, UniProt Q02644); assay: GH-RH radioreceptor binding assay, rat anterior pituitary membrane homogenates; conditions: for Ki: competition with [His1,125I-Tyr10,Nle27]hGH-RH(1–32)NH2; for R.A. (relative affinity compared to Standard antagonist): ratio of Ki values
T1 construct: from tissue; host or cells: anterior pituitary of male Sprague-Dawley rats, crude membrane homogenates
T1 sequence (Q02644 23-464): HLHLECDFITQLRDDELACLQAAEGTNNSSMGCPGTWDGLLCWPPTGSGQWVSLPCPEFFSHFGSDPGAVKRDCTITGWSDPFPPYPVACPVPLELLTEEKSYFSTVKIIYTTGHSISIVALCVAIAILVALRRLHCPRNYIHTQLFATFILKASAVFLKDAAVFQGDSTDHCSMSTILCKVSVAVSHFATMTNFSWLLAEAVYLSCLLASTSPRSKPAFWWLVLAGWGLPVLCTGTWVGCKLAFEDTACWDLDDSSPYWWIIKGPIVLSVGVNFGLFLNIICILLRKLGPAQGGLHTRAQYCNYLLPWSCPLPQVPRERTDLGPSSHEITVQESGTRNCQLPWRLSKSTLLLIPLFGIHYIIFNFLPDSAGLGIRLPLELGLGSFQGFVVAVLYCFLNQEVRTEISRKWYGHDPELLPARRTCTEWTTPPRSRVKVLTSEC
In short: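 Antagonists competed with [His^1,^125I-Tyr^10,Nle^27]hGH-RH(1–32)NH2 for binding to crude anterior pituitary membranes from male Sprague-Dawley rats, with γ-counting of the pellet. Ki came from Munson–Rodbard analysis. Relative affinity is the Ki of the test antagonist divided by the Ki of standard [Ac-Tyr^1,D-Arg^2]hGH-RH(1–29)NH2.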

[3] = test system: GH release stimulated by hGH-RH(1–29)NH2; assay: In vivo inhibition of serum GH response in rats; set-up: species or system rat; conditions: for Inhibition of the GH release stimulated by hGH-RH(1–29)NH2 (in words): 80 μg/kg i.v., rats
In short: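 Male Sprague-Dawley rats (200–250 g) under Nembutal received antagonist at 80 μg/kg i.v., then GH-RH(1–29)NH2 at 3 μg/kg after 5, 15, 30 or 60 min; controls received vehicle (5.5% mannitol). GH was measured by RIA before antagonist and 5 min after GH-RH, and inhibition was calculated as […].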

[4] = antagonist 80 μg/kg i.v. 5 min before GH-RH
[5] = antagonist 80 μg/kg i.v. 15 min before GH-RH
[6] = antagonist 80 μg/kg i.v. 15 min before GH-RH 3 μg/kg
[7] = antagonist 80 μg/kg i.v. 30 min before GH-RH
[8] = antagonist 80 μg/kg i.v. 30 min before GH-RH 3 μg/kg
[9] = antagonist 80 μg/kg i.v. 60 min before GH-RH
[10] = antagonist 80 μg/kg i.v. 60 min before GH-RH 3 μg/kg
[11] = rGH=GHblood1/GHblood0, antagonist 80 μg/kg i.v. 5 min before GH-RH 3 μg/kg

| SMILES | Inhibition of GH release (%) 30 min [1] [%] | Inhibition of GH release (%) 60 min [1] [%] | Inhibition of GH release (%) 90 min [1] [%] | Inhibition of GH release (%) 120 min [1] [%] | Inhibition of GH release (%) 0 min [1] [%] | Duration of complete inhibition of the GH-RH induced GH release ([1]; standard test conditions) [min] | Ki [2] [nM] | R.A. (relative affinity compared to Standard antagonist) [2] | Inhibition of the GH release stimulated by hGH-RH(1–29)NH2 (in words) [3] | Relative inhibition % of GH response [3, 4] [%] | Relative inhibition % of GH response [3, 5] [%] | GH response mean ± S.E.M. [3, 6] | Relative inhibition % of GH response [3, 7] [%] | GH response mean ± S.E.M. [3, 8] | Relative inhibition % of GH response [3, 9] [%] | GH response mean ± S.E.M. [3, 10] | GH response mean ± S.E.M. [3, 11] |
| --- | --- | --- | --- | --- | --- | --- | --- | --- | --- | --- | --- | --- | --- | --- | --- | --- | --- |
| CCCC[C@H](NC(=O)[C@@H](NC(=O)[C@H](CC(=O)O)NC(=O)[C@H](CCC(N)=O)NC(=O)[C@H](CC(C)C)NC(=O)[C@H](CC(C)C)NC(=O)[C@H](CCCCN)NC(=O)[C@H](CCCNC(=N)N)NC(=O)[C@H](C)NC(=O)[C@H](CO)NC(=O)[C@H](CC(C)C)NC(=O)[C@H](CCC(N)=O)NC(=O)[C@H](CC)NC(=O)[C@H](CC(C)C)NC(=O)[C@@H](NC(=O)[C@H](CCCCN)NC(=O)[C@H](CCCNC(=N)N)NC(=O)[C@H](Cc1ccc(O)cc1)NC(=O)[C@H](CCCNC(=N)N)NC(=O)[C@H](CC(N)=O)NC(=O)[C@@H](NC(=O)[C@H](Cc1ccc(Cl)cc1)NC(=O)[C@@H](NC(=O)[C@H](C)NC(=O)[C@H](CC(=O)O)NC(=O)[C@@H](CCCNC(=N)N)NC(=O)[C@H](Cc1ccc(O)cc1)NC(=O)Cc1ccccc1)[C@@H](C)CC)[C@@H](C)O)C(C)C)[C@@H](C)CC)C(=O)N[C@H](CCCNC(=N)N)C(=O)N[C@@H](CCCCNC(=N)N)C(N)=O [Peptide 1, [PhAc^0, D-Arg^2, Phe(pCl)^6, Arg^9, Abu^15, Nle^27, D-Arg^28, Har^29]hGH-RH(1–29)NH2] (PhAc-Y[dR]DAI[Phe(4-Cl)]TNRYRKVL[Abu]QLSARKLLQDI[Nle][dR][hArg]-NH2) | 100 | 100 | 100 | 94 | 100 | 90 | 0.044 | 67 | strong and long-lasting inhibition | 95 | 68 | 1.87 ± 0.13 | 64 | 1.97 ± 0.16 | −8 | 3.89 ± 0.65 | 1.13 ± 0.13 |
| CCCC[C@H](NC(=O)[C@@H](NC(=O)[C@H](CC(=O)O)NC(=O)[C@H](CCC(N)=O)NC(=O)[C@H](CC(C)C)NC(=O)[C@H](CC(C)C)NC(=O)[C@H](CCCCN)NC(=O)[C@H](CCCNC(=N)N)NC(=O)[C@H](C)NC(=O)[C@H](CO)NC(=O)[C@H](CC(C)C)NC(=O)[C@H](CCC(N)=O)NC(=O)[C@H](CC)NC(=O)[C@H](CC(C)C)NC(=O)[C@@H](NC(=O)[C@H](CCCCN)NC(=O)[C@H](CCCNC(=N)N)NC(=O)[C@H](Cc1ccc(OC)cc1)NC(=O)[C@H](CCCCNC(=N)N)NC(=O)[C@H](CC(N)=O)NC(=O)[C@@H](NC(=O)[C@H](Cc1ccc(Cl)cc1)NC(=O)[C@@H](NC(=O)[C@H](C)NC(=O)[C@H](CC(=O)O)NC(=O)[C@@H](CCCNC(=N)N)NC(=O)[C@H](Cc1ccc(O)cc1)NC(=O)Cc1ccccc1)[C@@H](C)CC)[C@@H](C)O)C(C)C)[C@@H](C)CC)C(=O)N[C@H](CCCNC(=N)N)C(=O)N[C@@H](CCCCNC(=N)N)C(N)=O [Peptide 3, [PhAc^0, D-Arg^2, Phe(pCl)^6, Har^9, Tyr(Me)^10, Abu^15, Nle^27, D-Arg^28, Har^29]hGH-RH(1–29)NH2] (PhAc-Y[dR]DAI[Phe(4-Cl)]TN[hArg]Y(Me)RKVL[Abu]QLSARKLLQDI[Nle][dR][hArg]-NH2) | 98 | 91 | 92 | 87 | 85 |  | 0.068 | 43 | strong and long-lasting inhibition | 68 | 61 | 3.63 ± 0.80 | 41 | 4.89 ± 0.95 | 34 | 5.36 ± 0.63 | 3.01 ± 0.41 |
